Measured values: the NIST ThermoML archive (doi:10.1016/j.tca.2016.04.023)
Where “and” joins values, the source holds several entries; their conditions need not be identical. Identical values can stand only once. ± gives the expanded uncertainty stated by the source.

Experiments:
[1] = Crystal; DTA
[2] = Molar enthalpy of transition or fusion; conditions: Crystal; DSC

Normal melting temperature [1]: 28.70 ± 1.1 °C and 28.30 ± 1.1 °C
Molar enthalpy of transition or fusion [2]: 40.5 kJ/mol and 38.8 kJ/mol
Structure (SMILES): O.O.O.O.O.O.[Ca+2].[Cl-].[Cl-] [calcium chloride hexahydrate]
